Assay results from US20110060044A1, “ALIPHATIC ACID-CONTAINING N-HALOGENATED AMINO ACID FORMULATIONS” (ALCON RESEARCH, LTD., priority 2007, published 2011).
Entries after “also recorded” stand apart in the source; their conditions may differ.

Columns and labels:
C. albicans = test: Antimicrobial activity (time-kill viability) evaluation with C. albicans; assay type: cell-based; conditions: measured by viable cells per mL, Table 2 / FIG. 2
Procedure: (§1) The antimicrobial activity of the formulations according to embodiments of the present invention were evaluated by a standard microbiological analysis. The results of this evaluation are summarized in Tables 1 and 2 below and are shown graphically in FIGS. 1 and 2. For the evaluation, bacterial and fungal isolates were grown overnight on appropriate agar media as source of fresh cells. A suspension of these fresh cells was prepared in saline at approximately 1×10^8 cfu/mL. These suspensions were added directly to the test agents (various solutions of sodium 2,2-dimethyl-N,N-dichlorotaurine and control solutions). The initial concentration of cells in the test agent solutions was approximately 1×10^6 cfu/mL. The exposure of microorganisms to the test agent was conducted at room temperature for up to 60 minutes. At selected times, an aliquot was withdrawn and diluted into phosphate buffered saline at 4° C. Viability was determined following serial dilution and filtration onto Milliflex cassettes.

S. aureus = test: Antimicrobial activity (time-kill viability) evaluation with S. aureus; assay type: cell-based; conditions: measured by viable cells per mL, Table 1 / FIG. 1
Procedure: as §1, with “The results of this evaluation are summarized in Tables 1 and 2 below and are shown graphically in FIGS. 1 and 2.” left out

CC(C)(CS(=O)(=O)O)N(Cl)Cl [2,2-dimethyl-N,N-dichlorotaurine]
anti-infective (antimicrobial) activity when the formulation contained sodium acetate (C. albicans): dramatically improved; also recorded: increased
anti-infective (antimicrobial) activity when the formulation contained sodium acetate (S. aureus): dramatically improved; also recorded: increased
